Test results taken from patent publication EP4038059B1, “SUBSTITUTED CARBAZOLE COMPOUNDS” (Bristol-Myers Squibb Company, priority 2019, dated 2021).

Key:
Format in all cases: cell-based
human TLR7 = biological target: T1, human TLR7 (Homo sapiens, UniProt Q9NYK1); assay: TLR7 inhibition reporter assay (HEK-Blue SEAP); settings: HEK-Blue cells overexpressing human TLR7, stimulated with gardiquimod 7.5 µM, 22 h incubation
T1 construct: host or cells: HEK-Blue cells
T1 sequence (Q9NYK1 27-1049): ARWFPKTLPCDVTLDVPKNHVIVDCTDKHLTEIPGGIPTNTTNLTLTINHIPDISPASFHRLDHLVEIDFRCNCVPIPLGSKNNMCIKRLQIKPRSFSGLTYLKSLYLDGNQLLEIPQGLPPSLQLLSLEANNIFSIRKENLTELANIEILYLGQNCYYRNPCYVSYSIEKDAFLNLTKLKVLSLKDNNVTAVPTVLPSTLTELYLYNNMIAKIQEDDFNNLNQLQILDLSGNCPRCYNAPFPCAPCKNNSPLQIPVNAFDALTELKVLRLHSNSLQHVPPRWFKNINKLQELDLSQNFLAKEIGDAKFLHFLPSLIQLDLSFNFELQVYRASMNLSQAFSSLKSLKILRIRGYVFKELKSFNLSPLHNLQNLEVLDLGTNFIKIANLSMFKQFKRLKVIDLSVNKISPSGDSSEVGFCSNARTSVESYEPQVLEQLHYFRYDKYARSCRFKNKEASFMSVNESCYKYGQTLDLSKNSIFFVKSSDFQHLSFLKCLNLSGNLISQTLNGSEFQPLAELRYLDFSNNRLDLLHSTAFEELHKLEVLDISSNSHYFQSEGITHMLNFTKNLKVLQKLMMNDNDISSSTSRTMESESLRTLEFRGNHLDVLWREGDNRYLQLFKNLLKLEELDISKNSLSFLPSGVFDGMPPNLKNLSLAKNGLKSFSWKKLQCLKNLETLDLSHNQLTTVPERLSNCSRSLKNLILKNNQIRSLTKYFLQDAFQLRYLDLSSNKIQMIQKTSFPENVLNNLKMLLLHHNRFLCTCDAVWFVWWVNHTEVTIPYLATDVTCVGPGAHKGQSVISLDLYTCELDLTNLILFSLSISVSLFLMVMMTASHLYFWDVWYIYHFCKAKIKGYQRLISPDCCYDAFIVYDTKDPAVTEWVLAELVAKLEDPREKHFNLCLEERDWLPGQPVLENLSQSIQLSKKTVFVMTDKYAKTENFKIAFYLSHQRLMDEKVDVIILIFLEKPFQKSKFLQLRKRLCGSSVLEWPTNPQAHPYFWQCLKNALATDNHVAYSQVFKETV
Method: (§1) HEK-Blue™-cells (Invivogen) overexpressing human TLR7, TLR8 or TLR9 receptors were used for screening inhibitors of these receptors using an inducible SEAP (secreted embryonic alkaline phosphatase) reporter gene under the control of the IFN-β minimal promoter fused to five NF-κB and AP-1-binding sites. Briefly, cells are seeded into Greiner 384 well plates (15000 cells per well for TLR7, 20,000 for TLR8 and 25,000 for TLR9) and then treated with test compounds in DMSO to yield a final dose response concentration range of 0.05 nM - 50 µM. After a 30 minute compound pre-treatment at room temperature, the cells are then stimulated with a TLR7 ligand (gardiquimod at a final concentration of 7.5 µM), TLR8 ligand (R848 at a final concentration of 15.9 µM) or TLR9 ligand (ODN2006 at a final concentration of 5 nM) to activate NF-κB and AP-1 which induce the production of SEAP. After a 22 h incubation at 37°C, 5% CO2, SEAP levels are determined with the addition of HEK-Blue™ Detection reagent (Invivogen), a cell culture medium that allows for detection of SEAP, according to manufacturer's specifications. The percent inhibition is determined as the % reduction in the HEK-Blue signal present in wells treated with agonist plus DMSO alone compared to wells treated with a known inhibitor.

human TLR8 = biological target: T2, human TLR8 (Homo sapiens, UniProt Q9NR97); assay: TLR8 inhibition reporter assay (HEK-Blue SEAP); settings: HEK-Blue cells overexpressing human TLR8, stimulated with R848 15.9 µM, 22 h incubation
T2 construct: host or cells: HEK-Blue cells
T2 sequence (Q9NR97 27-1041): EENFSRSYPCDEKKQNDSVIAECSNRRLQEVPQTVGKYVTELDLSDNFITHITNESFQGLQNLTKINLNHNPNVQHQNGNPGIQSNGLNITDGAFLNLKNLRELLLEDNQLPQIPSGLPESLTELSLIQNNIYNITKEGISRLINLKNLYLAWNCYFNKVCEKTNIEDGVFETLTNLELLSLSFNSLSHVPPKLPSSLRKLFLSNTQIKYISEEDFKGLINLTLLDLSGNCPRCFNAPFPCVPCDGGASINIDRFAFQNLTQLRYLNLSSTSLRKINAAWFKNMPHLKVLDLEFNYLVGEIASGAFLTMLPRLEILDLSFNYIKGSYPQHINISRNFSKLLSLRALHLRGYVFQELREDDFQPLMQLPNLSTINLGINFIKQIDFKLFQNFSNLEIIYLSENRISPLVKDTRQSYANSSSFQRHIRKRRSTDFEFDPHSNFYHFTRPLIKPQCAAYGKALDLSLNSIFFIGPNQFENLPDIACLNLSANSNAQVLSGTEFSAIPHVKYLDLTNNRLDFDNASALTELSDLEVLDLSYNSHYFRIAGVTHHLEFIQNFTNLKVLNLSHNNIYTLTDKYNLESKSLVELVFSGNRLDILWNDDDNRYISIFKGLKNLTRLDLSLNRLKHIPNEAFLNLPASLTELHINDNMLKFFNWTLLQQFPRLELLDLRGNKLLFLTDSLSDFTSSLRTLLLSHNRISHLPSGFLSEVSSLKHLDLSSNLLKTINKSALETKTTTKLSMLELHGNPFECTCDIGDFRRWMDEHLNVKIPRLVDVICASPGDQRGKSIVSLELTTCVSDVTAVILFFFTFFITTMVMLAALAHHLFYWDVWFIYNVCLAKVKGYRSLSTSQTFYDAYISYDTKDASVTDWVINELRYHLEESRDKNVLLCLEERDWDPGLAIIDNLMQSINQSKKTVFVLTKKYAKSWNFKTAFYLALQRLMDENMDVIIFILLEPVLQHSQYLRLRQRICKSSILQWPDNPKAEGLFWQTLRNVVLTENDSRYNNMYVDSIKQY
Method: as §1

human TLR9 = biological target: T3, human TLR9 (Homo sapiens, UniProt Q9NR96); assay: TLR9 inhibition reporter assay (HEK-Blue SEAP); settings: HEK-Blue cells overexpressing human TLR9, stimulated with ODN2006 5 nM, 22 h incubation
T3 construct: host or cells: HEK-Blue cells
T3 sequence (Q9NR96 26-1032): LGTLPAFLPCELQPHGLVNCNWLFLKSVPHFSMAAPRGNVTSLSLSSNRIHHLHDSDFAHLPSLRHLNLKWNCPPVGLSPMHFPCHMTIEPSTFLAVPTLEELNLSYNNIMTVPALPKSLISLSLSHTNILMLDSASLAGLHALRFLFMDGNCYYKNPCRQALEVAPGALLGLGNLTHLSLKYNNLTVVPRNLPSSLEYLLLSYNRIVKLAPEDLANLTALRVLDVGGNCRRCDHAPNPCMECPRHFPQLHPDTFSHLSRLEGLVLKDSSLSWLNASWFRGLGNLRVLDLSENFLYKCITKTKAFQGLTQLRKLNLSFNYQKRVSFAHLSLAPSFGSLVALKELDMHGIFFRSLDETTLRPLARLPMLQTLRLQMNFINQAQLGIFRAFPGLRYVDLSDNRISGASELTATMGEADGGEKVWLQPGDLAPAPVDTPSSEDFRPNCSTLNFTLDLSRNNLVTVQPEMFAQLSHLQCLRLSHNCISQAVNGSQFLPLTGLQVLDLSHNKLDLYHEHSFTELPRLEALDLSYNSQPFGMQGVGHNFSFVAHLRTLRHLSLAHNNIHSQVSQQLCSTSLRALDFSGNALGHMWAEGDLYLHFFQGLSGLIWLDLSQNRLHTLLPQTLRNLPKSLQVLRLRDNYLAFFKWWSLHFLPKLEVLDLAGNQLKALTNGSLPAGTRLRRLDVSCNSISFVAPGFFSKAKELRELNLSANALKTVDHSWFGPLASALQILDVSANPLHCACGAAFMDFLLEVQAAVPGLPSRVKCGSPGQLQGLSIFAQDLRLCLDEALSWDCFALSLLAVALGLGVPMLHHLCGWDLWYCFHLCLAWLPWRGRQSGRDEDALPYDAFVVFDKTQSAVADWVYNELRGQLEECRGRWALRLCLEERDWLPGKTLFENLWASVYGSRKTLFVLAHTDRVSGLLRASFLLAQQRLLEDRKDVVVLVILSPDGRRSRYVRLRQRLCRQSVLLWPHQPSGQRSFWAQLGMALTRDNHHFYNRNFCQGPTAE
Method: as §1

IC50 (human TLR7) [nM]	IC50 (human TLR8) [nM]	IC50 (human TLR9) [nM]	Structure (SMILES)
3.2	0.9	650	Cc1c(-c2cc(C)c3c(c2)[nH]c2ccc(C4CCN(CC(C)(C)O)CC4)cc23)cn(C)c(=O)c1C [Example 18, 5-(6-(1-(2-Hydroxy-2-methylpropyl)piperidin-4-yl)-4-methyl-9H-carbazol-2-yl)-1,3,4-trimethylpyridin-2(1H)-one]
1.8	4	416	Cc1cc(-c2cc(C)c3ncnn3c2)cc2[nH]c3ccc(C4CCN(CC(C)(C)O)CC4)cc3c12 [Example 19]
1.9	2.1	224	COc1cc(-c2cc(C)c3c(c2)[nH]c2ccc(C4CCN(CC(C)(C)O)CC4)cc23)cn2ncnc12 [Example 20]
1.5	12	60	Cc1cc(-c2cc(C)c3c(c2)[nH]c2ccc(C4CCN(CC(C)(C)O)CC4)cc23)cc(C)n1 [Example 21]
1.6	0.7	342	Cc1cc2c(cc1-c1cc(C)c3ncnn3c1)[nH]c1ccc(C3CCN(CC(C)(C)O)CC3)cc12 [Example 22]
4.1	0.9	259	COc1cc(-c2cc3[nH]c4ccc(C5CCN(CC(C)(C)O)CC5)cc4c3cc2C)cn2ncnc12 [Example 23]
68	1.5	388	Cc1cc2c(cc1-c1cn(C)c(=O)c(C)c1C)[nH]c1ccc(C3CCN(CC(C)(C)O)CC3)cc12 [Example 24]
1.8	0.4	264	COc1cc(-c2cc3[nH]c4ccc(C5CCN(CC(C)(C)O)CC5)cc4c3c(C)c2C)cn2ncnc12 [Example 25]
1.3	1.6	271	COc1cc(-c2cc3[nH]c4ccc(C5CCCNC5)cc4c3c(C)c2C)cn2ncnc12 (stereo not drawn) [Example 26, 2-(8-methoxy-[1,2,4]triazolo[1,5-a]pyridin-6-yl)-3,4-dimethyl-6-(piperidin-3-yl)-9H-carbazole]
3.3	3.8	1170	COc1cc(-c2cc3[nH]c4ccc(C5CCCN(C(=O)CN(C)C)C5)cc4c3c(C)c2C)cn2ncnc12 (stereo not drawn) [Example 27, 2-(dimethylamino)-1-(3-(7-(8-methoxy-[1,2,4]triazolo[1,5-a]pyridin-6-yl)-5,6-dimethyl-9H-carbazol-3-yl)piperidin-1-yl)ethan-1-one]
7.8	0.7	523	COc1cc(-c2cc3[nH]c4ccc(C5CCCN(C6CCOCC6)C5)cc4c3c(C)c2C)cn2ncnc12 (stereo not drawn) [Example 28, 2-(8-methoxy-[1,2,4]triazolo[1,5-a]pyridin-6-yl)-3,4-dimethyl-6-(1-(tetrahydro-2H-pyran-4-yl)piperidin-3-yl)-9H-carbazole]
3.1	1	228	COc1cc(-c2cc3[nH]c4ccc(C5CNC5)cc4c3c(C)c2C)cn2ncnc12 [Example 29, 6-(azetidin-3-yl)-2-(8-methoxy-[1,2,4]triazolo[1,5-a]pyridin-6-yl)-3,4-dimethyl-9H-carbazole]
5.5	1	813	COc1cc(-c2cc3[nH]c4ccc(C5CN(CCS(C)(=O)=O)C5)cc4c3c(C)c2C)cn2ncnc12 [Example 30, 2-(8-methoxy-[1,2,4]triazolo[1,5-a]pyridin-6-yl)-3,4-dimethyl-6-(1-(2-(methylsulfonyl)ethyl)azetidin-3-yl)-9H-carbazole]
8.1	1.2	587	COc1cc(-c2cc3[nH]c4ccc(C5CCCN(CC(C)(C)O)C5)cc4c3c(C)c2C)cn2ncnc12 (stereo not drawn) [Example 31]
9.4	2	802	COc1cc(-c2cc3[nH]c4ccc(C5CCCN(CCS(C)(=O)=O)C5)cc4c3c(C)c2C)cn2ncnc12 (stereo not drawn) [Example 32]
15.5	2.2	1230	COc1cc(-c2cc3[nH]c4ccc(C5CCCN(C6COC6)C5)cc4c3c(C)c2C)cn2ncnc12 (stereo not drawn) [Example 33]
1.3	2.5	321	COc1cc(-c2cc3[nH]c4ccc(C5CCCN(CC#N)C5)cc4c3c(C)c2C)cn2ncnc12 (stereo not drawn) [Example 34]
4.5	3.3	845	COc1cc(-c2cc3[nH]c4ccc(C5CN(C(=O)CN(C)C)C5)cc4c3c(C)c2C)cn2ncnc12 [Example 35]
